Source: patent US6303638A, “Substituted pyridines as modulators of the mammalian neuronal nicotinic acetylcholine receptor” (The Regents of the University of California, priority 1999, dated 2001)
Where “and” joins values, the source holds several entries; their conditions need not be identical. Equal entries are not always repeated. Where two headings read alike, the source gives them in different places.

How the values were obtained:
α4β2 nAChR = biological target: T1, α4β2 nAChR (Rattus norvegicus, UniProt P09483+P12390); assay: Inhibition of [3H](-)-nicotine binding to recombinant α4β2 nAChR
T1 construct: made in house; host or cells: Sf9 insect cells infected with each recombinant baculovirus stock; membrane preparation
Procedure: Representative compounds of the invention were investigated by way of the experimental protocol described below.
Production of recombinant α4β2 nAChR:
Recombinant baculovirus stocks containing inserts for the rat α4 and β2 nAChR subunits were independently amplified as described by Wang et al. (1996) J. Neurosci. Res. 44:350-354. Production of the α4β2 nAChR was achieved by infection of Sf9 insect cells with each recombinant viral stock. Cells were harvested 48-72 h post infection by centrifugation for 10 min at 100 g, then washed in a phosphate-bufferedsaline, and homogenized in a small volume of buffer (20 mM Tris-HCl, pH 7.4, 118 mM NaCl, […], 2.5 mM CaCl2, 1.2 mM MgSO4, and 1.0 mM EDTA), followed by centrifugation for 10 min at 300 g. The final step was centrifugation of the supernatant at 37000 g. The membrane pellet was resuspended in buffer and adjusted to 20 mg of total protein per 100 mL. These nAChR preparations were used immediately for binding assays or stored as single experiment aliquots at -80° C.
Reactions were terminated by addition of 3 mL ice-cold 0.9% NaCl followed by rapid vacuum filtration through filtermat B glass fiber filters and two 3-mL washes on the filter. Filters were pre-soaked at least 60 min in 0.1% w/v polyethyleneimine to reduce non-specific binding. […] The concentration of test compounds for 50% inhibition (IC50) was determined by iterative non-linear least-squares regression using the SigmaPlot program (Jandel Scientific Software, San Rafael, Calif.). The data reported are means±standard deviations with four determinations or are individual values for two determinations.

[1] = system: insect versus the mammalian nAChR; conditions: Kagabu et al. (1997); Chao et al. (1997); cited from earlier work
humans [2] = conditions: administered into the human blood stream, even in relatively small amounts; cited from earlier work
humans [3] = conditions: taken orally; cited from earlier work
[4] = 1 nM [3H]nicotine, 30 min, 22° C., Sf9 cell membranes, means ± standard deviations, four determinations, read-out: Inhibition of [3H](-)-nicotine binding to α4β2 nAChR IC50
[5] = 1 nM [3H]nicotine, 30 min, 22° C., Sf9 cell membranes, individual values for two determinations, read-out: Inhibition of [3H](-)-nicotine binding to α4β2 nAChR IC50 (individual values for two determinations)

T1 sequence (P09483 31-630): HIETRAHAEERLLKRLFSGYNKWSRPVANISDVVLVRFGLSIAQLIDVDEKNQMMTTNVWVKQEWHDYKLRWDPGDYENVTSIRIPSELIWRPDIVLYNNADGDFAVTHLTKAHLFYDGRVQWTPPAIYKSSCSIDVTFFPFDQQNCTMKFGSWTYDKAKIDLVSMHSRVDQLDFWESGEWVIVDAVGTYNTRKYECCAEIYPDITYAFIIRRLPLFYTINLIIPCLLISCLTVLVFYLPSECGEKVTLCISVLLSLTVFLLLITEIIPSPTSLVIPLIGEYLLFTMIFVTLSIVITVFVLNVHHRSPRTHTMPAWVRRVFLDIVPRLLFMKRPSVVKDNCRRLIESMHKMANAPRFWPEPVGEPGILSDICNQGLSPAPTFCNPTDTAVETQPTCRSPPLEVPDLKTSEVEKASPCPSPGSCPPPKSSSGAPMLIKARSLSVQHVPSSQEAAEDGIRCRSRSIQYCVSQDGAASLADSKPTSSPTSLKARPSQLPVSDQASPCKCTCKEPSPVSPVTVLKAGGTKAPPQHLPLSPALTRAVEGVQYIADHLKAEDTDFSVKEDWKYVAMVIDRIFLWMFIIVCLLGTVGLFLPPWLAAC
T1 sequence (P12390 25-500): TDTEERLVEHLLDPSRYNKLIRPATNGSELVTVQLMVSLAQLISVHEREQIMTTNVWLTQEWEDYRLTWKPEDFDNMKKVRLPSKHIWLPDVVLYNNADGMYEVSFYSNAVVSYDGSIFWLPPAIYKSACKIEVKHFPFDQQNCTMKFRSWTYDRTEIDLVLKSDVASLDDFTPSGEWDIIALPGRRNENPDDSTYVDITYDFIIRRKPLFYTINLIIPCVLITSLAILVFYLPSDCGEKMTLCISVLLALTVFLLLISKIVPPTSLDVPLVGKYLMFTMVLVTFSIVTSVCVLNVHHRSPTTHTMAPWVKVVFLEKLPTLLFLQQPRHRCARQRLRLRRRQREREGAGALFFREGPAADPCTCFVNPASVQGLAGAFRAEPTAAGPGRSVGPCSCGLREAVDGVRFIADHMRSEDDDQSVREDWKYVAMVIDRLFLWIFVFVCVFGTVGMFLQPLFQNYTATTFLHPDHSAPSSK

Structure (SMILES)	IC50 (α4β2 nAChR; [4])	other results
N=C1SCCN1Cc1ccc(Cl)nc1 [Compound 3, 1-(^6 -Chloro-3-pyridinyl)methyl-2-iminothiazolidine]	2.3 ± 0.3 nM	
Clc1ccc(CN2CCC2)cn1 [Compound 12, 1-(6-Chloro-3-pyridinyl)methylazetidine]	16 ± 14 nM	
N=C1NCCCCN1Cc1ccc(Cl)nc1 [Compound 2, 1-[(6-Chloro-3-pyridinyl)methyl]-2-iminotetrahydrodiazepine]	2.8 ± 1 nM	
N=c1[nH]ccn1Cc1ccc(Cl)nc1 [Compound 8, 1-[(6-Chloro-3-pyridinyl)methyl]-2-iminoimidazole]	23 ± 9 nM	
Clc1ccc(CN2CCCCC2)cn1 [Compound 14, 1-(^6 -Chloro-3-pyridinyl)methylpiperidine]	14 ± 3 nM	
N=C1OCCN1Cc1ccc(Cl)nc1 [Compound 7, 1-[(6-Chloro-3-pyridinyl)methyl]-2-imino-1,3-oxazolidine]	7.2 ± 2 nM	
N=C1NCCN1Cc1ccc(Cl)nc1 [1-[(6-chloro-3-pyridinyl)methyl]-2-imidazolidine]		selectivity insect versus mammalian nAChR [1]: selective for the mammalian versus the insect nAChR
N=C1NCCCN1Cc1ccc(Cl)nc1 [Compound 1, 1-(6-Chloro-3-pyridinyl)methyl-2-iminotetrahydropyrimidine]		IC50 (α4β2 nAChR): 58 nM; IC50 (α4β2 nAChR; [5]): 63 nM
O=[N+]([O-])NC1=NCCN1Cc1ccc(Cl)nc1 [imidacloprid]		selectivity insect versus mammalian nAChR [1]: acts selectively at the insect versus the mammalian nAChR
N=c1sccn1Cc1ccc(Cl)nc1 [Compound 9, 1-(6-Chloro-3-pyridinyl)methyl-2-iminothiazole]	0.91 ± 0.4 nM	
Clc1ccc(CN2CCCC2)cn1 [Compound 13, 1-(^6 -Chloro-3-pyridinyl)methylpyrrolidine]	8.8 ± 2.8 nM	
CN1CCC[C@H]1c1cccnc1 [nicotine]		central and peripheral effects of nicotine (humans [2]): fever, increased heart rate, trembling, nausea, increased blood pressure and convulsions; fatal oral dose (humans [3]): 250 to 350 mg
N=C1CCCCN1Cc1ccc(Cl)nc1 [Compound 6, 1-[(6-Chloro-3-pyridinyl)methyl]-2-iminopiperidine]	11 ± 5 nM	
C[N+](C)(C)Cc1ccc(Cl)nc1 [Compound 10, 1-(6-Chloro-3-pyridinyl)methyl-1,1,1-trimethylammonium chloride]		IC50 (α4β2 nAChR; [5]): 16 nM and 20 nM
CC[N+](CC)(CC)Cc1ccc(Cl)nc1 [Compound 11, 1-(6-Chloro-3-pyridinyl)methyl-1,1,1-triethylammonium chloride]		IC50 (α4β2 nAChR; [5]): 2400 nM and 3700 nM
N=C1CCCN1Cc1ccc(Cl)nc1 [Compound 5, 1-(6-Chloro-3-pyridinyl)methyl-2-iminopyrrolidine]	3.5 ± 0.7 nM	
N=C1SCCCN1Cc1ccc(Cl)nc1 [Compound 4, 1-[(6-Chloro-3-pyridinyl)methyl]-2-iminotetrahydrothiazine]	14 ± 4 nM	
